Test results taken from patent publication US6150382A, “Thio acid derived monocyclic n-heterocyclics as anticoagulants” (Berlex Laboratories, Inc., priority 1999, dated 2000).
Where a SMILES comes first, the peptide text is derived from it. [ ]: non-standard residue; d: D form. The star is where a group is joined. pNA = O=[N+]([O-])c1ccc(N*)cc1

Columns and labels:
Human thrombin = molecular target: T1, Human thrombin (Homo sapiens, UniProt P00734); experiment: In vitro chromogenic assay for thrombin; format: biochemical; details: substrate concentration stated equal to Km under the present assay conditions; pH 7.5, ambient temperature; read-out: Km (S2302)
T1 construct: forms the prothrombinase complex which converts prothrombin to thrombin; purchased Enzyme Research Lab
Protocol: (§1) The activities were determined as an initial rate of cleavage of the peptide p-nitroanilide by the enzyme. The cleavage product, p-nitroaniline, absorbs at 405 nm with a molar extinction coefficient of 9920M^-1 cm^-1.
(§2) 50 mM Tris HCl, 150 mM NaCl, 2.5 mM CaCl2, and
2. Human thrombin stock solution: Stored at -80° C. (working solution (2×): 1200 ng/mL or 40 nM in assay buffer, prepare prior to use).
2. S2302 (Thrombin assay) stock solution: 10 mM in deionized H2 O, stored at 4° C. (working solution (4×): 1200, μM in assay buffer).
(§3) Assays were performed in 96-well microtiter plates in a total volume of 200 μl. […] Concentrations of the standard inhibitor compound in the assay were from 5 μM to 0.021 μM in 1 to 3 dilution. Concentration of the test compounds in the assay typically were from 10 μM to 0.041 μM in 1 to 3 dilution. For potent test compounds, the concentrations used in the factor Xa assay were further diluted 100 fold (100 nM to 0.41 nM) or 1000 fold (10 nM to 0.041 nM). […]
(§4) The enzyme kinetics were measured at 405 nm at 10 seconds intervals for five minutes in a THERMOmax plate reader at ambient temperature.
(§5) Enzyme rates were calculated as mOD/min based on the first two minutes readings. The IC50 values were determined by fitting the data to the log-logit equation (linear) or the Morrison equation (non-linear) with an EXCEL spread-sheet. […]

[1] = molecular target: T2, Human tissue plasminogen activator (tPA) (Two chains, Sigma) (Homo sapiens, UniProt P00750); experiment: In vitro chromogenic assay for tissue plasminogen activator; format: biochemical; details: substrate concentration stated equal to Km under the present assay conditions; pH 7.5, ambient temperature; read-out: Km (S2288)
T2 construct: purchased Sigma
Protocol: as §1, §2
3. Human tissue plasminogen activator (tPA) (Two chains, Sigma) stock solution: 1 mg/mL, stored at -80° C. (working solution (2×): 1361 ng/mL in assay buffer, prepare prior to use).
3. S2288 (tPA assay) stock solution: 10 mM in deionized H2 O, stored at 4° C. (working solution (4×): 1484 μM in assay buffer).
as §3, §4, §5

T2 sequence (P00750 311-562 limits assumed): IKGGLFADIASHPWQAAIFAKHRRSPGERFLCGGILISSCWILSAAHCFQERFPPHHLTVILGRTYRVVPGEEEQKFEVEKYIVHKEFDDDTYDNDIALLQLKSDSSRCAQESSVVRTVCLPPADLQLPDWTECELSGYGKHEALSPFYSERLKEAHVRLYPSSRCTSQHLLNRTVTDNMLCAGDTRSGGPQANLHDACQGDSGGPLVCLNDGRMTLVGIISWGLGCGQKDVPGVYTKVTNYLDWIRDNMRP
T2 sequence (P00750 36-310 partner limits assumed): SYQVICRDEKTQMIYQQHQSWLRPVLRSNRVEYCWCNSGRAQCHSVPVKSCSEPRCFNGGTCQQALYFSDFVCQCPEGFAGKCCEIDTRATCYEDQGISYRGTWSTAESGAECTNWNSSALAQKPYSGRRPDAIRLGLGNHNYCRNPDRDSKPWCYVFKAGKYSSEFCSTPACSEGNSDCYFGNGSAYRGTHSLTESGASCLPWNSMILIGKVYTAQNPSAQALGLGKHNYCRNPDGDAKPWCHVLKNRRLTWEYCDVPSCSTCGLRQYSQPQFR

N=C(N)NCCC[C@H](NC(=O)[C@H](Cc1ccccc1)NC(=O)[C@H]1CCCN1)C(=O)Nc1ccc([N+](=O)[O-])cc1 [Example S2302] (H-[dP]-Phe-Arg-pNA)
Km (Human thrombin): 300 µM

CC[C@@H](C)[C@@H](N)C(=O)N1CCC[C@H]1C(=O)N[C@@H](CCCN=C(N)N)C(=O)Nc1ccc([N+](=O)[O-])cc1 [Example S2288] (H-[dI]-Pro-Arg-pNA)
Km [1]: 371 µM
